Here are results for three compounds from patent US9174917B2, “Bexarotene analogs” (Arizona Board of Regents on Behalf of Arizona State …, priority 2010, dated 2015).

The subject of assay [1] is RXR. Conditions: from the literature; cited from earlier work.
The test system of assay [2] is CTCL cells. As to the kind of experiment: DNA microarray gene expression analysis in CTCL cells. It is filed as cell-based, human. Conditions: 4-hour treatment, versus ethanol vehicle control. The source says: DNA microarray analysis is a method to assess genome-wide gene expression by simultaneously quantitating mRNA levels from all or a subset of genes in a genome and comparing these levels between a control and an experimental sample. These changes are compared, such as in as wild type versus mutant strains or cells with no treatment compared to cells treated with a reagent. RNA is extracted from the two cell types, and either converted to cDNA or amplified to cRNA, and then this message pool is used to assess gene expression changes. Both pools of labeled message are hybridized to a DNA microarray (or “gene chip”). These microarrays have all genes in the genome spotted onto the array in a precise fashion, such that this chip experiment becomes a genome-wide northern blot, assaying the message levels of all genes in the cells. Since the control and the experimental are hybridized to the same chip, there can be direct comparisons performed between the starting mRNA levels of the two, looking for genes that are under or over expressed in the experimental as compared to the control, analyzing the intensity of the hybridization of both cDNA pools.
The total RNA will be isolated from human CTCL cells, either untreated or treated with bexarotene or the appropriate analog. The RNA quality and integrity will be tested before hybridization using denaturing gel electrophoresis as well as reverse transcription followed by PCR. Once high quality RNA is isolated, labeled cRNA can be generated with the Genisphere 350 kit. Microarrays are readily available for such tests, for example, human microarrays can be obtained from Washington University St. Louis (Human HEEBO microarrays), or alternatively from the Toronto Microarray Centre (Toronto, Canada).
CTCL cells were treated bexarotene or ethanol vehicle control and total RNA was extracted after 4-hour treatment using the BioRad Aurum Total RNA Mini kit. Total RNA extracted was utilized to produce cRNA using a Genisphere 350 kit and was used to hybridize human HEEBO microarray slides obtained from GCAT (Genome Consortium for Active Teaching). The Genisphere 350 kit high sensitivity protocol was used and representative results were obtained (data not shown). […] Likewise, there was a 2.9-fold downregulation of REEP, a gene that occurs in a deleted segment of human 5q31 in malignant myeloid diseases; and 2.6-fold downregulation of RAC GAP1, a GTPase activating protein of RAC, a protein required for malignant cell movement106; and 2.5-fold downregulation of karyopherin alpha 1 (importing alpha 5), a protein required for STAT1 import into the nucleus. […]

For `Cc1cc2c(cc1C1(c3ccc(C(=O)O)cc3)CC1)C(C)(C)CCC2(C)C` [Compound 105], the “reported / documented RXR activity” value in assay [1] was “potent, RXR-selective agonists”.
For the compound `CC(/C=C/C1(c2cc3c(cc2C)C(C)(C)CCC3(C)C)CC1)=C\C(=O)O` [Compound 106], in assay [1], the “reported / documented RXR activity” value is “potent, RXR-selective agonists”.
On to `C=C(c1ccc(C(=O)O)cc1)c1cc2c(cc1C)C(C)(C)CCC2(C)C` [bexarotene], for which, in assay [2], the “downregulation of RAC GAP1” value was 2.6 fold, the “downregulation of REEP” value stood at 2.9 fold, the “downregulation of karyopherin alpha 1 (importing alpha 5)” value is recorded as 2.5 fold and the “upregulation of death associated protein kinase 3” value is on record as 4.3 fold. In assay [2], the “upregulation of endothelin converting enzyme 1” value came to 4.6 fold and the upregulation of urocortin was determined as 3.5 fold.
